From PubChem BioAssay (NCI)
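Tested at 5 concentrations; 48 h exposure; 96-well plates; endpoints linearly interpolated, else capped at highest concentration. TGI marks complete inhibition of growth.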

Experiments:
Assay in all cases: NCI tumour cell line growth inhibition, 48 h
NCI-H226 lung = system: NCI-H226 lung
EKVX NSCLC = system: EKVX NSCLC
UACC-62 melanoma = system: UACC-62 melanoma
OVCAR-3 ovarian = system: OVCAR-3 ovarian
A549 NSCLC = system: A549 NSCLC
RPMI-8226 leukemia = system: RPMI-8226 leukemia
UO-31 renal = system: UO-31 renal
A498 renal = system: A498 renal
M14 melanoma = system: M14 melanoma
HL-60(TB) leukemia = system: HL-60(TB) leukemia
K-562 leukemia = system: K-562 leukemia
RXF 393 renal = system: RXF 393 renal
NCI-H23 lung = system: NCI-H23 lung
OVCAR-5 ovarian = system: OVCAR-5 ovarian
PC-3 prostate = system: PC-3 prostate
KM12 colon = system: KM12 colon
UACC-257 melanoma = system: UACC-257 melanoma
MDA-N = system: MDA-N
T-47D breast = system: T-47D breast
CCRF-CEM leukemia = system: CCRF-CEM leukemia

SMILES | TGI (NCI-H226 lung) | TGI (EKVX NSCLC) | TGI (UACC-62 melanoma) | TGI (OVCAR-3 ovarian) | TGI (A549 NSCLC) | TGI (RPMI-8226 leukemia) | TGI (UO-31 renal) | TGI (A498 renal) | TGI (M14 melanoma) | TGI (HL-60(TB) leukemia) | TGI (K-562 leukemia) | TGI (RXF 393 renal) | TGI (NCI-H23 lung) | TGI (OVCAR-5 ovarian) | TGI (PC-3 prostate) | TGI (KM12 colon) | TGI (UACC-257 melanoma) | TGI (MDA-N) | TGI (T-47D breast) | TGI (CCRF-CEM leukemia)
CCC1c2[nH]c3ccccc3c2C[C@H]2C(=O)NC(CCC(=O)OC(C)(C)C)C(=O)N12 (some centres undefined) | > 100 µM | > 100 µM | > 100 µM | > 100 µM | > 100 µM | 97.9 µM | > 100 µM | > 100 µM | > 100 µM | > 100 µM | > 100 µM | > 100 µM | > 100 µM | > 100 µM | > 100 µM | > 100 µM | > 100 µM | > 100 µM | > 100 µM | 
COc1ccccc1N1C(=O)/C(=C\c2cccc(Oc3ccccc3)c2)SC1c1ccccc1 (centres undefined) |  | > 100 µM | > 100 µM | > 100 µM | > 100 µM | > 100 µM | > 100 µM | > 100 µM | > 100 µM | 39.4 µM | > 100 µM | > 100 µM | 98.1 µM | > 100 µM | > 100 µM | > 100 µM | > 100 µM | 64.6 µM | > 100 µM | 
O=P(c1ccccc1)(c1ccccc1)C(NCc1ccccc1)c1ccc(F)cc1 (centres undefined) | 40.4 µM | 25.4 µM | 27.3 µM | 27.6 µM | 30.2 µM | > 100 µM | 25.3 µM | 32 µM | 27.8 µM | > 100 µM | 65.4 µM | 28.3 µM | 31.3 µM |  |  | 29.1 µM | 34.9 µM | 33.1 µM | 60.7 µM | 48.6 µM
COC1(OC)C2(Cl)CCC1(Cl)C(OC(C)=O)C2 (centres undefined) | > 100 µM | > 100 µM | > 100 µM | > 100 µM | > 100 µM | > 100 µM | > 100 µM | > 100 µM | > 100 µM |  | > 100 µM | > 100 µM | > 100 µM | > 100 µM | > 100 µM | > 100 µM | > 100 µM | > 100 µM | > 100 µM | > 100 µM
Cc1cc(O)c(/C=N/C(=S)NCCc2ccccc2)c(=O)o1 | > 100 µM | > 100 µM |  | > 100 µM | > 100 µM |  | > 100 µM |  | > 100 µM | > 100 µM |  |  | > 100 µM | > 100 µM | > 100 µM | > 100 µM | > 100 µM | > 100 µM | > 100 µM | 
CC[C@@H]1/C=C/C=C/C[C@H](C)[C@@H](O)[C@](C)(O)C(=O)[C@H](C)[C@@H](O)[C@H](C)C(=O)[C@H](C)[C@@H](O)[C@H](C)/C=C/C(=O)O[C@H]2[C@@H](C)[C@@H](CC1)O[C@]1(O[C@H](CC(C)O)[C@H](C)CC1=O)[C@@H]2C (some centres undefined) |  | 5.9 µM | 6.68 µM | 13.1 µM | > 16.2 µM | > 13.9 µM | > 20.4 µM | 7.93 µM | 9.41 µM | 11.4 µM | 14.5 µM | 7.37 µM | 12.4 µM | 8.25 µM | 6.41 µM | 13 µM | 3.54 µM | 10.7 µM | > 25 µM | > 16 µM
CCCCn1c(C)c(C(=O)OCC)c2cc(OCc3ccc(C(=O)Nn4c(C)ccc4C)cc3)c(Br)cc21 | > 100 µM | > 100 µM | > 100 µM | > 100 µM | > 100 µM | > 100 µM |  | > 100 µM | > 100 µM | > 100 µM | > 100 µM |  | > 100 µM | > 100 µM | > 100 µM | > 100 µM | > 100 µM | > 100 µM | > 100 µM | > 100 µM
O=C(CC(=O)n1nc(-c2ccccc2)c(N=Nc2ccc(Cl)cc2)c1-c1ccccc1)Nc1cccc(Cl)c1 | > 100 µM | > 100 µM | > 100 µM |  | > 100 µM | > 100 µM | > 100 µM | > 100 µM | > 100 µM | > 100 µM | > 100 µM | > 100 µM | > 100 µM | > 100 µM | > 100 µM | > 100 µM | > 100 µM | > 100 µM | > 100 µM | > 100 µM
Cc1ccc2nc3ccccc3c(C3C4C(=O)N(c5ccc(Br)cc5Cl)C(=O)C4ON3C(C(N)=O)c3ccccc3)c2c1 (centres undefined) | > 25 µM | 15.5 µM | > 25 µM | > 25 µM | > 25 µM |  | 12.9 µM | > 25 µM | > 25 µM | > 25 µM | > 25 µM | > 25 µM | 6.86 µM | > 25 µM | > 25 µM | > 25 µM | > 25 µM | 23.6 µM | > 25 µM | > 25 µM
CCOC(=O)NC(Nc1ccc(S(=O)(=O)Nc2ncccn2)cc1)(C(=O)OCC)C(F)(F)F (centres undefined) | > 100 µM | > 100 µM | > 100 µM | > 100 µM | > 100 µM | > 100 µM | > 100 µM |  | > 100 µM | > 100 µM | > 100 µM |  | > 100 µM | > 100 µM | > 100 µM | > 100 µM | > 100 µM | > 100 µM | > 100 µM | > 100 µM
Cc1[nH]c(=O)[nH]c(=S)c1C(=O)NC(C)(CO)CO | > 100 µM | > 100 µM | > 100 µM | > 100 µM | > 100 µM |  | > 100 µM | > 100 µM | > 100 µM | > 100 µM | > 100 µM | > 100 µM | > 100 µM | > 100 µM | > 100 µM | > 100 µM | > 100 µM | > 100 µM | > 100 µM | > 100 µM
COC(=O)c1ccc2c(c1)CC1(C2)Cc2cc3c(cc2C1=O)CCC3 (centres undefined) |  | > 100 µM |  | 87.8 µM | > 100 µM | 38.7 µM | > 100 µM | > 100 µM | 42.2 µM | 39.8 µM | > 100 µM | > 100 µM | > 100 µM | > 100 µM | > 100 µM | 23.1 µM | 46.7 µM | 61.1 µM | > 100 µM | 52.7 µM
C/C(=N\NC(=S)N1CC2CCC(CC2)C1)c1ccncn1 | 2.33 µM | 4.21 µM | 1.04 µM |  | 1.94 µM |  | 0.911 µM | 2.84 µM | 2.36 µM | 1.44 µM |  | 2.25 µM | 2.4 µM | 5.44 µM | 15 µM | 3.16 µM | 2.91 µM | 15.4 µM | 3.48 µM | 
